Experimental data from the METLIN SMRT retention time set (Domingo-Almenara et al. 2019).

Assay: gradient 5% acetonitrile 3 min, to 50% in 2 min, to 85% in 15 min, held 3 min, 100 µL/min
Details: column: Zorbax Extend-C18 2.1 x 50 mm; eluents: water / acetonitrile, 0.1% formic acid
Outline: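 A Zorbax Extend-C18 column (2.1 × 50 mm, 1.8 μm) run at 100 μL/min with water and acetonitrile, both containing 0.1% formic acid, separated mixtures of ~100 pure standards. The HPLC was coupled to a quadrupole time-of-flight mass spectrometer operated in positive and negative ionization mode, with dead and dwell volumes of 40 μL and 900 μL. Each retention time was taken from a computationally picked adduct peak that was then manually inspected.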

Structure (SMILES)	RP-LC retention time [s]
CC(C)c1cc(N2CCN(C(=O)C3CC3)CC2)nc2nncn12	586
CN1CCN(S(=O)(=O)c2ccc3nn(Cc4c(F)cccc4Cl)c(=O)n3c2)CC1	642
CCOc1ccc(S(=O)(=O)N(CC(=O)N2CCNCC2)CC2CCCO2)cc1 (stereo not given)	626
CCCN1CCN(S(=O)(=O)c2cc(-c3cc(C(F)(F)F)[nH]n3)sc2C)CC1	707
CCOC(=O)c1c(S(=O)(=O)N2CCC(C(=O)Nc3ncccc3C)CC2)c(C)n(C)c1C	632
Cc1ccc(CNC(=O)c2c(C)sc3ccn(Cc4ccc(F)cc4)c(=O)c23)o1	980
CCc1nc2c(NC(=O)NCc3ccc(F)cc3)cccn2n1	788
Cc1cc(OCC(=O)Nc2cccc(Cl)c2)nc(N2CCN(c3ccccc3)CC2)n1	904
CCOc1ccc(Cc2nc(-c3ccc4c(c3)oc(=O)n4C)no2)cc1OCC	976
Cc1ccccc1OCC(=O)N1CCCC1c1nc(-c2cccc(Cl)c2)no1 (stereo not given)	1150
CNC(=O)N1CCCC(c2cccc(C(=O)N3CCN(c4ccccc4F)CC3)c2)C1 (stereo not given)	834
Cc1cccc(NC(=O)c2cn3c(n2)CCCC3)c1	609
O=C1CCCC1C(=O)Nc1ccc2ccccc2c1 (stereo not given)	884
CCCCC(CC)C(=O)Nc1nc(-c2ccc(Cl)cc2)cs1 (stereo not given)	1240
CCCc1nnsc1C(=O)NCc1nc(C)no1	656
Cc1nn(-c2cc(N(C)C)ncn2)c(C)c1CCC(=O)N1CCC(Cc2ccccc2)CC1	969
COc1ccc(S(=O)(=O)N2C[C@@H]3C[C@H]2C[C@@H]3NC(=O)c2cccs2)cc1Cl	792
Cc1ccc(-n2nc(C)c3sc(N4CCCC(C(=O)NC5CCCC5)C4)nc32)cc1 (stereo not given)	1150
CCc1ccc(Oc2cc(N3CCC(C(=O)NC4CCC(C)CC4)CC3)ncn2)cc1 (stereo not given)	1120
Cc1ccc(-c2cc3n(n2)CCCN(C(=O)c2n[nH]c4ccccc24)C3)cc1	850

Structure (SMILES)	RP-LC retention time [s]
O=C(NCCCN1CCOCC1)c1cc2n(n1)CCCN(Cc1ccccc1)C2=O	594
CCN(CC)c1nc2cc(C(=O)NCC(C)C)ccc2c(=O)n1Cc1ccccc1	1090
COc1ccccc1CN1CCc2nc(N3CCN(c4ccccc4F)CC3)ncc2C1	808
O=C(NCCC1=CCCCC1)c1nc(Nc2ccc(F)cc2)c2ccccc2n1	962
Cc1ccc(-c2nc3n(CC(=O)N4CCCC4)c4c(c(=O)n3n2)CCC4)cc1	752
Cc1ccc(-c2nc(Nc3ccccc3F)sc2CC(=O)O)cc1	960
Cc1cc(S(=O)(=O)N2CCCCC2c2nncn2C)ccc1F (stereo not given)	717
CCOc1ccc(NC(=O)N2CCCC(Cn3cnc4cccnc43)C2)cc1 (stereo not given)	640
Cc1ccc(NS(=O)(=O)c2cc3n(c2)CCCNC3=O)c(F)c1	663
CC(C)(C)c1noc(-c2ccc(=O)n(Cc3ccc(Cl)cc3)n2)n1	1120
Cc1cc(F)ccc1NC(=O)c1sc(-c2cn(C)c3ncccc23)nc1C	899
Cc1cccn2c(=O)cc(CN(C)Cc3ccccc3)nc12	603
Cc1ccc(-c2nnc(Cc3nc(-c4cccc(C(F)(F)F)c4)no3)o2)cc1	1160
COc1ccc(-c2nnc(N3CCC(C(=O)Nc4ccc(OC)cc4OC)CC3)o2)cc1	837
O=C(Nc1ccc(Cl)cc1)c1oc2ccccc2c1NC(=O)C1CC1	1080
Cc1[nH]c(=O)[nH]c(=O)c1CCC(=O)Nc1cccc(-c2nc3ccccc3s2)c1	672
COc1ccc(-n2c(=O)c(C(=O)NC(C)c3ccc(F)cc3)c(O)c3cccnc32)cc1 (stereo not given)	1220
Cc1cc(=O)n(CC(=O)Nc2ccc(F)c(Cl)c2)c(N2CCOCC2)n1	677
Cc1nc(C)c(C(=O)N2CCCC(c3nn(C)c(=O)n3-c3ccccc3)C2)s1 (stereo not given)	641
CN1CCN(CCCNC(=O)C2CCN(S(=O)(=O)c3ccc4c(c3)sc(=O)n4C)CC2)CC1	580

Structure (SMILES)	RP-LC retention time [s]
Nc1nc(Nc2ccc3c(c2)CC[C@@H](N2CCCC2)CC3)nn1-c1cc2c(nn1)-c1ccccc1CCC2	760
CCOC(=O)NCc1nc(COc2ccc(OC)cc2)no1	727
O=C(NCc1ccccc1F)c1ccc2c(c1)CN(C1CCSCC1)CCO2	584
CCOC(=O)C1CC(=O)c2cc(OC)c(OC)cc2C1 (stereo not given)	812
O=C(O)c1nnn(Cc2ccccc2F)c1-c1cccnc1	633
CCOC(=O)c1cc(S(=O)(=O)N2CCCC2C(=O)NC2CCCCCC2)cn1C (stereo not given)	968
CC(C)CC(=O)Nc1n[nH]c2c1CN(C(=O)C1CCN(C)CC1)C2(C)C	605
CCOC(=O)C1CCN(c2cc(C)nc3nc(-c4ccc(OC)cc4)nn23)CC1	881
COc1ccc(C)cc1NC(=O)C1CCCN1S(=O)(=O)c1cc2c(cc1C)NC(=O)C(C)O2 (stereo not given)	880
O=C(Cc1ccsc1)Nc1ccc2c(c1)CCC(=O)N2	662
O=S(=O)(c1ccc2c(c1)CCCC2)N1CCCn2nc(-c3ccncc3)cc2C1	706
Cc1cc(-c2ccc(S(=O)(=O)N3CCC(C(=O)NCC4CCCCC4)CC3)o2)n[nH]1	840
CC(C)OCCCNC(=O)c1nnc(-c2ccc(S(=O)(=O)N3CCOCC3)cc2)o1	784
O=C(NCc1cccs1)c1cccnc1N1CCNC(c2ccccc2)C1 (stereo not given)	612
Cc1ccc(CNC(=O)C2CCN(c3ncccc3S(=O)(=O)N3CCCCC3)CC2)cc1	960
COc1cccc2c(NC(=O)c3ccccc3F)cc(C)nc12	579
CCOc1cc(-c2nc(C3CC(=O)N(c4ccc(C)cc4)C3)no2)cc(OCC)c1OCC (stereo not given)	1150
COc1ccc(CNC(=O)Cn2c(=O)c3c(C(=O)N4CCCCC4)cc(C)nc3n(C)c2=O)cc1	761
O=C1NCCCn2cc(S(=O)(=O)NC3CCCCCC3)cc21	688
CC(C)CN1C(=O)c2cccn2CC1C(=O)NCc1ccco1 (stereo not given)	733

Results, then the molecule that gave them:

RP-LC retention time [s]	Structure (SMILES)
860	CCCN1C(=O)CCc2cc(NS(=O)(=O)c3ccccc3C(F)(F)F)ccc21
806	CC(Cc1ccco1)NC(=O)c1ccc2ccnc(N3CCN(c4ccccc4)CC3)c2c1 (stereo not given)
568	Nc1nnc(CS(=O)(=O)c2ccccc2)o1
613	Cc1cc(N2CCN(C(=O)c3c(F)cccc3F)CC2)nc(N2CCOCC2)n1
880	CCc1ccc(NC(=O)Nc2cnn(-c3ncc(N4CCCC4)cn3)c2)cc1
735	Cc1ccccc1Cn1cc(-c2ccncc2)cc1C(=O)NCc1ccccc1
798	COc1ccccc1NS(=O)(=O)c1cc2n(c1)CCN(CC(C)C)C2=O
755	CN(CC1CCOC1)S(=O)(=O)Cc1ccccc1F (stereo not given)
826	COc1ccc2c(C)c(C(=O)Nc3cc(C)ns3)oc2c1
1140	O/N=C(/c1ccccc1)c1ccc2c3c(cccc13)CC2
983	COc1cccc(NC(=O)Nc2nccn(-c3ccc(Br)cc3)c2=O)c1
733	O=C(CCc1csc(NC(=O)c2cccs2)n1)Nc1ccc2c(c1)OCCO2
626	Cc1nc(-c2ccccc2)sc1CC(=O)NCCSc1nncn1C
884	COC(=O)c1ccccc1NC(=O)Cn1ccn2nc(-c3ccccc3)c(CO)c2c1=O
995	CCn1cc(-c2nc(C)c(C(=O)NCc3ccccc3C)s2)c2cccnc21
605	Cc1noc2nc(CCC(=O)NCCCN3CCc4ccccc4C3)nc(N3CCOCC3)c12
657	CCN1C(=O)c2cccc3c(NC(=O)Cc4ccc(S(C)(=O)=O)cc4)ccc1c23
757	CCN(C(=O)Cn1c(C(C)C)nc2c(c1=O)CN(Cc1ccccc1)CC2)c1ccccc1
903	O=C(CCn1nnc2cc(-c3noc(-c4ccc(F)cc4)n3)ccc21)N1CCCC1
916	COc1ccc(OC)c(S(=O)(=O)N2CCCC(C)(C(=O)NCc3ccc(F)cc3)C2)c1 (stereo not given)
603	Clc1ccc(Cl)c(-c2ccc(CNCCN3CCNCC3)o2)c1
749	C=CCNC(=O)c1snc(C(=O)NC(C)C)c1N
981	CCc1ccccc1S(=O)(=O)N1CCC(C(=O)NCCc2csc(-c3cccs3)n2)CC1
653	O=C(CCc1c(-c2ccc(F)cc2)nc2ccccn12)Nc1ccccc1F
593	Cn1ncc2c3ccccc3n(CCCC(=O)NCCCN3CCOCC3)c2c1=O
590	O=C(c1ccc2c(c1)OCO2)N1CCC2(CC1)CC(O)CCO2 (stereo not given)
915	O=C(CN1c2ccc(F)cc2-c2ccccc2S1(=O)=O)N1CCCCC1
1250	Cc1cc(F)ccc1NC(=O)c1c(O)c2cccnc2n(-c2cccc(F)c2)c1=O
1070	CSc1nsc(SCC(=O)Nc2nc(-c3ccccc3)cs2)n1
714	Cc1nn(C)c(C)c1S(=O)(=O)N1CCc2nn(Cc3ccccc3)c(=O)n2CC1
